The values that follow come from PubChem BioAssay AID602437 (Southern Research Specialized Biocontainment Screening …, 2012).

For assay [1], the system named is M. tuberculosis H37Rv growth inhibition, no glycerol. As to the kind of experiment: H37Rv growth blockers, purified and synthesized samples, set 8, confirmation (AID 602437). The note with it: for IC50: measured here: IC50 replicates.
Test in assay [2]: as above
The note with it: M. tuberculosis H37Rv growth inhibition, no glycerol; at 100 µM (top of the series).

Where “and” joins values, the source holds several entries; their conditions need not be identical. Identical values can stand only once. Calls of active or inactive are those of the source. How the calls were made is not given here. Some results are limits rather than exact numbers.

In the case of `COc1ccc(N2CCN(C(=O)c3ccc(CNc4c(N5CCOCC5)c(=O)c4=O)cc3)CC2)cc1`, in assay [1], the IC50 was 8.95 µM and 8.65 µM.

For `CC(C)OC(=O)CSc1ncnc2c1cnn2-c1ccccc1`, in assay [1], the IC50 was found to be 12 µM.

In assay [1], `O=C(c1ccc(CNc2c(N3CCOCC3)c(=O)c2=O)cc1)N1CCC(c2ccccc2)CC1` showed an IC50 of 3.56 µM.

In assay [1], `CC1CC(C)CN(C(=O)c2ccc(CNc3c(N4CCCC4)c(=O)c3=O)cc2)C1` (stereo not given) had an IC50 of 12.8 µM.

Compound `O=C(c1ccc(CNc2c(N3CCCC3)c(=O)c2=O)cc1)N1CCC(c2ccccc2)CC1` came in with an IC50 in assay [1] of 76.1 µM.

`O=C(CSc1nc2ccccc2c(=O)[nH]1)NC1CCCCC1`: in assay [1], the IC90 is under 0.27 µM and the IC50 is 0.204 µM.

On to `CC(C)CCNC(=O)CSc1nc2c(c(=O)[nH]1)CCCC2`, for which, in assay [1], the IC90 was 6.58 µM and the IC50 worked out at 4.43 µM.

`CCOC(=O)N1CCC(Nc2c(Nc3cccc(CC)c3)c(=O)c2=O)CC1` gave an IC50 in assay [1] of 36.5 µM.

Compound `CC(=O)c1ccc(NC(=O)c2ccc(CNc3c(N4CCOCC4)c(=O)c3=O)cc2)cc1` came in with an IC50 in assay [1] of 63.7 µM.

The compound `CC(C)CCNC(=O)CSc1nc2c(c(=O)[nH]1)CCCCC2` registered an IC50 in assay [1] of 99.2 µM.

As for `COc1ccc(NC(=O)NCc2ccc(C(=O)N3CCC(c4ccccc4)CC3)cc2)cc1`, the inhibition in assay [2] is 14% (inactive).

`O=C(c1ccc(CNc2c(N3CCOCC3)c(=O)c2=O)cc1)N1CCN(c2ccccc2)CC1`: the IC50 in assay [1] stood at 3.8 µM.

In assay [1], `O=C(c1ccc(CNc2c(N3CCCC3)c(=O)c2=O)cc1)N1CCc2ccccc2C1` returned an IC50 of 7.79 µM.

Consider `COc1ccc(N2CCN(C(=O)c3ccc(CNC(=O)NCc4ccc(Cl)cc4)cc3)CC2)cc1`, for which the inhibition in assay [2] is 2.39% (inactive).

Regarding `O=C(CSc1nc2ccccc2c(=O)[nH]1)NC1CCOCC1`, in assay [1], the IC90 is 33.8 µM and the IC50 was 20.5 µM.

For `COCCNC(=O)CSc1nc2ccccc2c(=O)[nH]1`, in assay [2], the inhibition was -10.3% (inactive).

On to `O=C(CSc1nc2c(c(=O)[nH]1)CCC2)NC1CCCCC1`, for which, in assay [1], the IC90 is 3.23 µM and the IC50 came out at 2.24 µM.

For `CC(C)CCNC(=O)CSc1nc2ccccc2c(=O)[nH]1`, in assay [1], the 90% effect concentration (IC90) is 1.01 µM and the IC50 amounted to 0.651 µM.

`O=C(c1ccc(CNc2c(N3CCCC3)c(=O)c2=O)cc1)N1CCN(c2ccccc2)CC1` returned an IC50 in assay [1] of 70.2 µM.

`O=C(NCc1ccc(C(=O)N2CCC(c3ccccc3)CC2)cc1)Nc1ccc(Cl)cc1`: in assay [1], the IC90 is 92.5 µM and the IC50 is 72.2 µM.

As to `O=C(NCCc1ccc(Cl)cc1)C1CCC(CNc2c(N3CCCCC3)c(=O)c2=O)CC1` (stereo not given), the IC50 in assay [1] is 17.6 µM.

Turning to `CC1CCCN(c2c(NCc3ccc(C(=O)N4CC=C(c5ccccc5)CC4)cc3)c(=O)c2=O)C1` (stereo not given), in assay [1], the IC90 was 9.7 µM and the IC50 was 7.72 µM.

For the compound `O=C(NCc1ccc(C(=O)N2CCN(c3ccccc3)CC2)cc1)NC1CCCCC1`, the inhibition in assay [2] is 2.51% (inactive).

Consider `O=C(CSc1nc2c(c(=O)[nH]1)CN(Cc1ccccc1)CC2)NC1CCCCC1`, for which the inhibition in assay [2] was -4.57% (inactive).

In assay [1], `CC1CCN(C(=O)c2ccc(CNc3c(N4CCCC4)c(=O)c3=O)cc2)CC1` gave an IC50 of 10.1 µM.

Regarding `CC1CC(C)CN(C(=O)C2CCC(CNc3c(N4CCCCC4)c(=O)c3=O)CC2)C1` (stereo not given), in assay [1], the concentration for half-maximal inhibition (IC50) was 7.79 µM and 24.7 µM.

As for `CCOc1ccc(NC(=O)c2ccc(CNc3c(N4CCCC4)c(=O)c3=O)cc2)cc1`, the inhibition in assay [2] was -0.36% (inactive).

Take `CCC(C)NC(=O)CSc1nc2ccccc2c(=O)[nH]1` (stereo not given): in assay [1], the IC90 is 7.63 µM and the half-inhibitory concentration (IC50) worked out at 4.95 µM.

On to `COC(=O)CSc1ncnc2c1cnn2-c1ccc(C)cc1C`, for which, in assay [1], the IC90 is 3.71 µM and the IC50 was 2.78 µM.

`O=C(C1CCC(CNc2c(N3CCCCC3)c(=O)c2=O)CC1)N1CCCCC1` (stereo not given) gave an IC50 in assay [1] of 27.5 µM.

For the compound `COc1ccc(N2CCN(C(=O)c3ccc(CNc4c(N5CCCC(C)C5)c(=O)c4=O)cc3)CC2)cc1` (stereo not given), in assay [1], the IC90 is 41.4 µM and the concentration for half-maximal inhibition (IC50) is 25.4 µM.

As to `O=C(NCc1ccc(C(=O)N2CCC(c3ccccc3)CC2)cc1)NC1CCCCC1`, in assay [1], the IC90 was 86.4 µM and the IC50 amounted to 67.7 µM.

Consider `O=C(c1ccc(CNc2c(N3CCCC3)c(=O)c2=O)cc1)N1CC=C(c2ccccc2)CC1`, for which the IC50 in assay [1] was 4.52 µM and 4.4 µM.

`CCOC(=O)CSc1ncnc2c1cnn2-c1ccc(C)cc1C`: in assay [1], the IC90 was 4.58 µM and the IC50 turned out to be 2.64 µM.

For `O=C(NCCc1ccc(Cl)cc1)c1ccc(CNc2c(N3CCOCC3)c(=O)c2=O)cc1`, the IC50 in assay [1] is 5.66 µM and 14.4 µM.

The compound `CC1CCCN(C(=O)c2ccc(CNc3c(N4CCCCC4)c(=O)c3=O)cc2)C1` (stereo not given) gave an IC50 in assay [1] of 5.73 µM.

With `O=C(CSc1nc2c(c(=O)[nH]1)CCCC2)NC1CCCCC1`, in assay [1], the IC90 is 3.45 µM and the IC50 came out at 2.3 µM.

As to `CCOC(=O)CSc1ncnc2c1cnn2-c1ccccc1`, in assay [1], the IC90 is 9.98 µM and the IC50 turned out to be 4.02 µM.

For the compound `O=C(c1ccc(CNc2c(N3CCOCC3)c(=O)c2=O)cc1)N1CC=C(c2ccccc2)CC1`, in assay [1], the IC90 was 8.36 µM and the IC50 amounted to 1.71 µM.

For the compound `Cc1cccc(N2CCN(C(=O)c3ccc(CNc4c(N5CCC(C)CC5)c(=O)c4=O)cc3)CC2)c1C`, in assay [1], the IC90 was 56.9 µM and the IC50 was 42.1 µM.

`Cc1cccc(N2CCN(C(=O)c3ccc(CNc4c(N5CCC(C)CC5)c(=O)c4=O)cc3)CC2C)c1` (stereo not given): in assay [1], the IC90 was 46.3 µM and the IC50 amounted to 27.7 µM.

With `COC(=O)C(Cc1ccccc1)NC(=O)CSc1nc2ccccc2c(=O)[nH]1` (stereo not given), the inhibition in assay [2] is 2.32% (inactive).

Compound `CC1CCCN(C(=O)C2CCC(CNc3c(N4CCCCC4)c(=O)c3=O)CC2)C1` (stereo not given) yielded an IC50 in assay [1] of 34.9 µM.

By IC50 is commonly meant the concentration needed to halve the response being measured. In general, IC90 refers to the concentration at which the effect reaches the 90% level. What is called inhibition is the drop in the measured response relative to a control, in per cent.
